The values that follow come from patent US20060142241A1, “Methods and compositions for reducing neurodegeneration in amyotrophic lateral sclerosis” (priority 2004, published 2006).

SMILES strings stand for the structures. Converted amounts (≈) assume the structure as drawn.

The conditions of data set [1]: protonated form; cited from earlier work.
For data set [2] the following is noted: oral administration; cited from earlier work.
The nature of the next data set: in vitro. The settings on record: rat/mouse hybrid.
Data set [3] relates to A4V cells (VSC 4.1, mutant human Cu/Zn SOD-1). Nature of the data set: DAPI staining to evaluate apoptosis by GSNO. It is filed as cell-based. Particulars: 500 μM GSNO, 24 h. The procedure:
(§1) DAPI staining to evaluate apoptosis by GSNO and its results; 4′,6-Diamidino-2-phenylindole dihydrochloride (DAPI) staining was performed to evaluate apoptosis as follows. After differentiation, the wildtype (control), G93A, and A4V cells were incubated with without 500 μM GSNO for 24 h; the cells were then centrifuged at 265 g for 2 min, and 4% neutral buffered formalin (100 μL) was added to the cell pellet. A 50 μL aliquot of the cell suspension was applied to a glass slide and dried at room temperature. The fixed cells were washed in PBS, air dried, and stained for 20 min with the DNA-specific fluorochrome, DAPI (Sigma, Saint Louis, Mo., USA). The adhered cells were rinsed with PBS, air dried, and mounted with 90% glycerol. The slides were observed under Olympus fluorescence microscopy(pictures).

For data set [4], the system named is wild type cells (VSC 4.1, wild type human Cu/Zn SOD-1). Kind of data set: DAPI staining to evaluate apoptosis by GSNO. The data set is classed as cell-based. Particulars: 500 μM GSNO, 24 h. The procedure:
as §1

Data set [5] deals with G93A cells (VSC 4.1, mutant human Cu/Zn SOD-1). Nature of the data set: DAPI staining to evaluate apoptosis by GSNO. The data set is classed as cell-based. Particulars: 500 μM GSNO, 24 h. The procedure:
as §1

Method for in vitro: To evaluate the anti-apoptotic effect of solubilized UDCA against GSNO on wild type cells and cells containing G93A and A4V mutations in hSOD1, wildtype cells, G93A cells, and A4V cells were incubated with 500 μM GSNO for 24 h in order to induce apoptosis and then cell viability of was determined. These apoptosis-induced wildtype cells, G93A cells, and A4V cells were next incubated with 20 μM of solubilized UDCA for 24 h and cell viability was determined again using both the MTT assay and Trypan blue staining.
Cell culture: VSC 4.1. […]
MTT assay and trypan blue staining to evaluate the anti-apoptotic effects of solubilized UDCA and its results; 3-(4,5-dimethylthiazol-2-yl)-2,5-diphenyltetrazolium bromide (MTT) is absorbed into cells and converted to formazan by the action of mitochondrial succinate dehydrogenase. […] Finally, optical density (OD) was read at 540 nm on the ELISA plate reader after particles in the well were dissolved by a microplate mixer for 10 min. Results were calibrated using OD measured without cell culture. […] Unstained live cells were counted on a haemocytometer. Cell viability was expressed as percentages of the cell survival.

Regarding `C[C@H](CCC(=O)O)[C@H]1CC[C@H]2[C@@H]3[C@@H](O)C[C@@H]4C[C@H](O)CC[C@]4(C)[C@H]3CC[C@]12C` [UDCA, Ursodeoxycholic acid], the solubility result in data set [1] is recorded as “about 0.05 mM”. Also, in data set [2], the “fraction of an ingested dose absorbed in the colon” value was 20%.

For the compound `C[C@H](CCC(=O)NCCS(=O)(=O)O)[C@H]1CC[C@H]2[C@@H]3[C@@H](O)C[C@@H]4C[C@H](O)CC[C@]4(C)[C@H]3CC[C@]12C` [TUDCA, tauroursodeoxycholic acid], in data set [1], the solubility was 450 µM (≈ 225 µg/mL).

Consider `N[C@@H](CCC(=O)N[C@@H](CSN=O)C(=O)NCC(=O)O)C(=O)O` [GSNO, S-nitrosoglutathione], for which the viability at 24 h, 500 μM in the data set “in vitro” came to 81%. Further, the “percent of apoptotic cells” value in data set [3] was 25%; in data set [4], 8%; in data set [5], 19%.

The term solubility denotes the dissolved amount per volume that the medium holds. As usually defined, the viability is the share of living cells, or the viability signal relative to a control. The low end stands for more harm to the cells, the high end for less harm to the cells.
